Measured values: patent US5549903A, “Microencapsulated composition containing chlorpyrifos or endosulfsan” (priority 1994, dated 1996)

How the values were obtained:
[1] = tested on: honey bees; conditions: technical chlorpyrifos, comparison value; cited from earlier work
[2] = tested on: rats; conditions: technical chlorpyrifos; cited from earlier work
[3] = tested on: honey bees; conditions: technical chlorpyrifos, comparison value; cited from earlier work; remark: listed apart in the source
[4] = Stability of unprotected chlorpyrifos to UV/visible light; assay type: physicochemical; conditions: 68 hours
Description: Unprotected chlorpyrifos was irradiated by an ultraviolet/visible light lamp for 68 hours. The stability versus the wavelength of the light is summarized as follows: […]

[5] = Stability of endosulfan to irradiation; assay type: physicochemical; conditions: 100 hours at 310±5 nanometers and 475± nanometers
From the text: Details of the stability of chlorpyrifos are listed in Example 2.

[6] = tested on: mice; conditions: technical material; cited from earlier work

Row | Compound | LD50 contact [1] | LD50 (acute oral) [2] | LD50 oral [3] | Extent of Degradation ([4]; 313 ± 5 nm) | Extent of Degradation ([4]; 365 ± 5 nm) | Extent of Degradation ([4]; 404 ± 5 nm) | Extent of Degradation ([4]; 436 ± 5 nm) | decomposition after irradiation [5] | LD50 [6]
1 | CCOP(=S)(OCC)Oc1nc(Cl)c(Cl)cc1Cl [chlorpyrifos, O,O-diethyl-O-(3,5,6-trichloro-2-pyridyl)-phosphorathio-ate] | 0.059 μ/bee | 168 mg/kg | 0.25 μg/bee | Total degradation | Low degradation | Low degradation | Medium degradation | – | –
2 | O=S1OCC2C(CO1)C1(Cl)C(Cl)=C(Cl)C2(Cl)C1(Cl)Cl (stereo not drawn) [endosulfan, 6,7,8,9,10-hexachloro-1,5-5a,9a tetryhydro-6,9-methano-2,4,3-benzodioxathipia-3-oxide] | – | – | – | – | – | – | – | decomposed | 30 mg/kg
